We go through 1 compound from ChEMBL document CHEMBL3769311, “The natural flavone fukugetin as a mixed-type inhibitor for human tissue kallikreins” (Bioorg Med Chem Lett, 2016).

In experiment [1] the target is T1, Kallikrein-2 (Homo sapiens, UniProt P20151).
T1 sequence (P20151 whole entry): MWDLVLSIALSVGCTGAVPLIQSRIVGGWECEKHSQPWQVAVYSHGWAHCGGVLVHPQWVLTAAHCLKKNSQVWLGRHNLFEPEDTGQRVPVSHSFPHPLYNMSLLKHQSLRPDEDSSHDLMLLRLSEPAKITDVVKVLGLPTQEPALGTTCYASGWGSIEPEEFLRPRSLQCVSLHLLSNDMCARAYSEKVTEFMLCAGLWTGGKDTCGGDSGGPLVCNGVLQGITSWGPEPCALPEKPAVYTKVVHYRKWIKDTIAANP
Description: Mixed-type inhibition of human tissue kallikrein-2 expressed in baculovirus infected insect cells using Abz-KLRSSQ-EDDnp as substrate preincubated for 10 mins followed by substrate addition by Lineweaver-Burk plot analysis.

Experiment [2] addresses T2, Kallikrein-1 (Homo sapiens, UniProt P06870). In words: Inhibition of human tissue kallikrein-1 expressed in baculovirus infected insect cells using Abz-KLRSSQ-EDDnp as substrate preincubated for 10 mins followed by substrate addition by FRET assay.
In experiment [3] the target is T1, Kallikrein-2. Description: Inhibition of human tissue kallikrein-2 expressed in baculovirus infected insect cells using Abz-KLRSSQ-EDDnp as substrate preincubated for 10 mins followed by substrate addition by FRET assay.
Experiment [4] deals with T3, Prostate-specific antigen (Homo sapiens, UniProt P07288).
T3 sequence (P07288 whole entry): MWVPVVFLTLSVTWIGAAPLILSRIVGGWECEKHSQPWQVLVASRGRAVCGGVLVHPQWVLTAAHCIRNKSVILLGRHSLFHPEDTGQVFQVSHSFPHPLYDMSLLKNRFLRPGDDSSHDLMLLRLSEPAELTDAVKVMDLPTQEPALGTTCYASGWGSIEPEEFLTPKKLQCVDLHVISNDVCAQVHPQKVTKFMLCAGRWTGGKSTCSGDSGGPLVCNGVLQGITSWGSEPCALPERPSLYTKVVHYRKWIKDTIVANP
In words: Inhibition of human tissue kallikrein-3 expressed in baculovirus infected insect cells using Abz-KLYSSQ-EDDnp as substrate preincubated for 10 mins followed by substrate addition by FRET assay.

Experiment [5] has as its target T4, Kallikrein-5 (Homo sapiens, UniProt Q9Y337).
T4 sequence (Q9Y337 whole entry): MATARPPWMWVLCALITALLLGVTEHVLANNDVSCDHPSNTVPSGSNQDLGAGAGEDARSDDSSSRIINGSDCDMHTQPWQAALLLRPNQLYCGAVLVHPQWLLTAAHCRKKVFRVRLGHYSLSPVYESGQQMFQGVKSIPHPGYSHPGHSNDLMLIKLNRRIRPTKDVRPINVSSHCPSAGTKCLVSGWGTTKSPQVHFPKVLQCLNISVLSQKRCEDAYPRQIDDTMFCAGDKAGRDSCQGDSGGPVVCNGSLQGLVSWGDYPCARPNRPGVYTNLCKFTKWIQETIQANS
Description: Inhibition of human tissue kallikrein-5 expressed in baculovirus infected insect cells using Abz-KLRSSQ-EDDnp as substrate preincubated for 10 mins followed by substrate addition by FRET assay.

Experiment [6] has as its target Kallikrein-6 (Homo sapiens, UniProt Q92876). Description: Inhibition of human tissue kallikrein-6 expressed in baculovirus infected insect cells using Abz-KLRSSQ-EDDnp as substrate preincubated for 10 mins followed by substrate addition by FRET assay.
Experiment [7] deals with Kallikrein-7 (Homo sapiens, UniProt P49862). In words: Inhibition of human tissue kallikrein-7 expressed in baculovirus infected insect cells using Abz-KLYSSQ-EDDnp as substrate preincubated for 10 mins followed by substrate addition by FRET assay.
Sequence of Kallikrein-7 (P49862 whole entry): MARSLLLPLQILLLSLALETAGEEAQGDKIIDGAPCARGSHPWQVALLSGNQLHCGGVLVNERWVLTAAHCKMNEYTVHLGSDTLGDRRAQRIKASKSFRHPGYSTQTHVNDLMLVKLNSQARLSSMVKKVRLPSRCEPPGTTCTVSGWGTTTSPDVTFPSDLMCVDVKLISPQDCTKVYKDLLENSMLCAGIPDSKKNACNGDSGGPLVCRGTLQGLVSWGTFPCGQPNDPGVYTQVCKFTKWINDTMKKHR
Experiment [8] has as its target T2, Kallikrein-1. Description: Mixed-type inhibition of human tissue kallikrein-1 expressed in baculovirus infected insect cells using Abz-KLRSSQ-EDDnp as substrate preincubated for 10 mins followed by substrate addition by Lineweaver-Burk plot analysis.

T2 sequence (P06870 whole entry): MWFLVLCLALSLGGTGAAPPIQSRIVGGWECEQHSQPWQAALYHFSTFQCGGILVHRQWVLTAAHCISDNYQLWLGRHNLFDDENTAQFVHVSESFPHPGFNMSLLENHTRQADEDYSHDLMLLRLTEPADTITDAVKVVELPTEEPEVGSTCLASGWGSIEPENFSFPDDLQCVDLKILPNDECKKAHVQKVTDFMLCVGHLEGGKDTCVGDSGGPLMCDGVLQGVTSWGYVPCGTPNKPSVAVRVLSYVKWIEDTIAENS

As a reminder, the Ki is a dissociation constant, usually derived from enzyme kinetics or from competition with a known ligand. Lower therefore signals tighter binding. As usually defined, the IC50 is the concentration at which inhibition is half-maximal. Read a low IC50 as higher potency. `O=C1CC(c2ccc(O)c(O)c2)Oc2c1c(O)cc(O)c2[C@@H]1C(=O)c2c(O)cc(O)cc2O[C@H]1c1ccc(O)cc1` (stereo partly drawn) [FUKUGETIN]: the Ki worked out at 1.6 µM in experiment [1] and 3.6 µM in experiment [8]. Further, the half-inhibitory concentration (IC50) came to 5.7 µM in experiment [2]; 3.2 µM in experiment [3]; 13 µM in experiment [4]; 12.5 µM in experiment [5]; 13.5 µM in experiment [6]; 15 µM in experiment [7].
